Measurements taken from patent publication US20190083455A1, “METHODS AND COMPOSITIONS FOR THE MODULATION OF BETA-ENDORPHIN LEVELS” (The General Hospital Corporation, priority 2014, published 2019).

What was measured:
mice = experiment: Conditioned place preference testing with i.v. β-endorphin; format: in vivo; settings: i.v. tail vein
Description: To test whether it is plausible that skin-derived β-endorphin may cause central effects we decided to assess whether peripherally administered β-endorphin injected i.v. into the tail vein could cause conditioned place preference.

[1] = system: Malme-3M, UAC257 and UACC62 human melanoma cell lines; experiment: RT-qPCR of POMC after forskolin treatment, human melanoma cell lines; format: cell-based; settings: 20 μM forskolin; human samples
Description: (§1) UACC62 and UAC257 human melanoma cells were obtained from NCI and grown in RPMI (Cellgro) medium supplemented with 10% fetal bovine serum and penicillin/streptomycin/L-glutamine. Malme-3M human melanoma and B16 mouse melanoma cell line were obtained from ATCC and grown in DEMEM (Cellgro) medium supplemented with 5% fetal bovine serum and 1% penicillin/streptomycin/L-glutamine. Melan-a cells were kindly provided by Dorothy C. Bennett and were grown in Ham's F10 medium supplemented with 10% fetal bovine serum and 1% penicillin/streptomycin/L-glutamine. The mouse keratinocyte cell line PAM212 was generously shared by Dr. Paolo Dotto (Massachusetts General Hospital and Harvard Medical School, Boston, Mass.) and grown in 10% fetal bovine serum and 1% penicillin/streptomycin/L-glutamine. Cells were grown to 70% confluence prior to use in experiments in humidified incubators supplemented with 5% CO2.
(§2) After forskolin (Sigma) treatment at 20 μM final concentration at the stated times, mRNA was isolated using RNeasy® plus minikits from Qiagen, and was subjected to KAPA SYBR® FAST One-Step qRT-PCR (Kapa Biosystems). For each reaction, 100 ng of RNA was subjected to the following steps: reverse transcription for 30 min at 48° C., inactivation for 10 min at 95° C., expansion for 40 cycles (15 sec at 95° C. and 30 sec at 60° C.). The results are the average of three independent experiments. […]

β-endorphin = experiment: Plasma β-endorphin after topical forskolin treatment; format: in vivo; settings: male mice, non-K14-SCF vs K14-SCF/Mc1r^e/e
Description: Blood samples from mice were collected in EDTA microvotte tubes containing 0.6 UTI aprotinin (Sigma). Samples were spun at 3500 rpm at 4° C. for 20 min and the plasma (top layer) was isolated and transferred to a new tube and stored at −80° C. until β-endorphin measurement was performed. β-Endorphin was measured using a radioimmunoassay from Phoenix Pharmaceuticals, following the manufacturer's instructions.
All experiments were done in C57BL/6J (Jackson laboratory) mice. C57BL/6J Mc1r^e/e (described at Robbins L S, et al., Pigmentation phenotypes of variant extension locus alleles result from point mutations that alter MSH receptor function. Cell. 1993 Mar. 26; 72(6) 72, 827-834.) were crossed with K14-Scf transgenic mice as previously reported (Kunisada T, et. al., Development. 1998 August; 125(15):2915-23.). Mice were 8 weeks old at the start of each experiment.
A crude extract of Coleus forskohlii root preparation was used as a working source of forskolin (ATZ Natural, Edgewater, N.J.) for the topical treatment of this drug (Lin C B, et. al., Modulation of microphthalmia-associated transcription factor gene expression alters skin pigmentation. J Invest Dermatol 119, 1330-1340 (2002)). […] Samples were processed and β-endorphin was measured.

[2] = system: B16, B16-F0, Melan-a and PAM212 mouse cell lines; experiment: RT-qPCR of POMC and Mitf after forskolin treatment, mouse cell lines; format: cell-based; settings: 20 μM forskolin; mouse cells
Description: as §1, §2

| Compound | conditioned place preference (time spent in the white box) (mice) | time point of increase of POMC after treatment [1] [h] | β-endorphin fold induction, comparison of genotypes (β-endorphin) | time of peak Mitf mRNA expression after treatment [2] [h] | time of peak POMC mRNA expression after treatment [2] [h] |
| --- | --- | --- | --- | --- | --- |
| β-endorphin (YGGFMTSEKSQTPLVTLFKNAIIKNAYKKGE; Beta-endorphin; UniProt P01189 237-267, looked up) [endogenous opioid peptide, administered i.v. through the tail vein] | spent more time in the white box after conditioning | – | – | – | – |
| C=C[C@@]1(C)CC(=O)[C@]2(O)[C@@]3(C)[C@@H](O)CCC(C)(C)[C@@H]3[C@H](O)[C@H](OC(C)=O)[C@@]2(C)O1 [forskolin] | – | 2 to 4 | higher fold induction in the non-K14-SCF mice compared to the K14-SCF/Mc1r^e/e | 2 | 8 |
